The structures appear in SMILES notation. Structures can show the parent of a compound that is named as a salt.

The target in one assay is T1, Human FXa (Homo sapiens, UniProt P00742).
T1 construct: Human FXa [Enzyme research Laboratories (USA)] enzyme; purchased Enzyme Research Laboratories (USA)
As to the kind of experiment: Determination of anti-factor Xa (FXa) activity, synthetic substrate S-2222. The format is biochemical. The conditions noted are these: S-2222, 37° C., pH 8.4, read-out: Experimental Example 1: anti-FXa activity, IC50. Here is the method: Determination of Anti-factor Xa (FXa) Activity
Human FXa [Enzyme research Laboratories (USA)] enzyme (40 μl, 0.16U/ml) and test compounds (40 l) adjusted to various concentrations were incubated in 0.1M Tris (Tris-hydroxymethyl-aminomethane) buffer (pH 8.4) containing 0.2M sodium chloride (herein to be referred to as 0.1 M tris-0.2M NaCl buffer) (40 μl) at 37° C. for 10 min. A synthetic substrate S-2222 (Daiichi Pure Chemical (Tokyo, Japan), 40 μl) adjusted to 0.8 mM was added and the mixture was incubated at 37° C. for 10 min. The reaction was stopped by addition of 60% acetic acid (40 μl) and absorbance at 405 nm was measured by Model 3550 (BIO-RAD). For the control, the solvent was used instead of the test compound.

Another assay deals with T2, Human FIIa (Homo sapiens, UniProt P00734).
T2 construct: purchased Sigma
As to the kind of experiment: Determination of anti-factor IIa (FIIa) activity, synthetic substrate S-2238. The format is biochemical. The conditions noted are these: S-2238, 37° C., pH 8.4, read-out: Experimental Example 2: anti-FIIa activity, IC50.

T1 sequence (P00742 235-488 limits assumed): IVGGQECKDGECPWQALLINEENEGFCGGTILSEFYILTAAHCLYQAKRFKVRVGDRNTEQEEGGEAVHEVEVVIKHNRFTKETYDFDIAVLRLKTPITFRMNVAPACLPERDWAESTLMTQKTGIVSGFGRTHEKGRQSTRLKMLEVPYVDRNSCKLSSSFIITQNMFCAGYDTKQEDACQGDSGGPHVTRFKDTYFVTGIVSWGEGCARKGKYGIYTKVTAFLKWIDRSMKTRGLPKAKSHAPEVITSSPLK
T1 sequence (P00742 41-179 partner limits assumed): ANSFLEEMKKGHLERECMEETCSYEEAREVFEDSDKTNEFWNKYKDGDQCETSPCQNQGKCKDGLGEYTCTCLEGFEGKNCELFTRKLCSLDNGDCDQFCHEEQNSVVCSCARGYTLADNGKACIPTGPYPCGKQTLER

On to `N=C(N)N1CCc2ccc(OCC3CCN(CCO)CC3)cc2C1` [Example 21, 7-[1-(2-Hydroxyethyl)piperidin-4-ylmethoxy]-1,2,3,4-tetrahydroisoquinoline-2-carboxamidine Dihydrochloride], for which the IC50 on Human FXa was 0.7 µM; at Human FIIa, over 10 µM.

As to `N=C(N)N1CCc2ccc(OCC3CCN(c4ccncc4CCC(=O)O)CC3)cc2C1` [Example 89, 3-[4-[4-(2-Amidino-1,2,3,4-tetrahydroisoquinolin-7-yloxymethyl)piperidin-1-yl]pyridin-3-yl]propionic Acid Dihydrochloride], the IC50 at Human FXa was 0.2 µM; on Human FIIa, over 10 µM. On the same counts, the results for `N#CC1(CCOc2ccc3c(c2)CN(C(=N)N)CC3)CCN(c2ccncc2)CC1` [Example 37, 7-[2-[4-Cyano-1-(pyridin-4-yl)piperidin-4-yl]ethoxy]-1,2,3,4-tetrahydroisoquinoline-2-carboxamidine Dihydrochloride] are 0.04 µM and over 10 µM.

Regarding `N=C(N)N1CCc2ccc(OCC3CCN(Cc4ccncc4)CC3)cc2C1` [Example 22, 7-[1-(Pyridin-4-ylmethyl)piperidin-4-ylmethoxy-1,2,3,4-tetrahydroisoquinoline-2-carboxamidine Trihydrochloride], the results for the half-maximal inhibitory concentration (IC50) at Human FXa and on Human FIIa were 0.8 µM and over 10 µM, respectively.

For the compound `CCOC(=O)C(=O)N(Cc1nc2cc(C(=N)N)ccc2n1CC(=O)NC1CCCCC1)C1CCN(c2ccncc2)CC1` [Example 60, 1-(Cyclohexylcarbamoylmethyl)-2-[N-[1-(pyridin-4-yl)piperidin-4-yl]-N-ethoxalylaminomethyl]benzimidazole-5-carboxamidine Dihydrochloride], the IC50 was 0.9 µM at Human FXa and over 10 µM on Human FIIa. On the same counts, the results for `N=C(N)N1CCc2ccc(SCCC3(C(=O)O)CCN(c4ccncc4)CC3)cc2C1` [Example 44, 4-[2-(2-Amidino-1,2,3,4-tetrahydroisoquinolin-7-ylthio)ethyl]-1-(pyridin-4-yl)piperidine-4-carboxylic Acid Dihydrochloride] are 0.7 µM and over 10 µM. On the same counts, the results for `N=C(N)c1ccc2c(c1)nc(CN(C(=O)C(=O)O)C1CCN(c3ccncc3)CC1)n2CC(=O)NC1CCCCC1` [Example 61, N-[5-Amidino-1-(cyclohexylcarbamoylmethyl)benzimidazole-2-ylmethyl]-N-[l-(pyridin-4-yl)piperidin-4-yl]aminooxalic Acid Dihydrochloride] are 0.3 µM and over 10 µM. In the same order, the values of `N/C(=N/O)N1CCc2ccc(OCC3CCN(c4ccncc4)CC3)cc2C1` [Example 4, 7-[1-(Pyridin-4-yl)piperidin-4-ylmethoxy]-1,2,3,4-tetrahydroisoquinoline-2-carboxamide Oxime Dihydrochloride] are 0.6 µM and over 10 µM. Take `CC(=N)N1CCC(Oc2ccc(OCc3nc4cc(C(=N)N)ccc4n3CC(=O)c3ccccc3)cc2)CC1` [Example 57, 2-[4-(1-Acetimidoylpiperidin-4-yloxy)phenoxymethyl]-1-phenacylbenzimidazole-5-carboxamidine Dihydrochloride]: the IC50 was 0.05 µM on Human FXa and over 10 µM at Human FIIa. Turning to `N=C(N)c1ccc2c(c1)nc(CN(C(=O)c1ccc(C(=O)O)cc1)c1ccc(OC3CCN(C(=N)NCc4ccccc4)CC3)cc1)n2CC(=O)NC1CCCCC1` [Example 110, N-[5-Amidino-1-(cyclohexylcarbamoylmethyl)benzimidazol-2-ylmethyl]-N-[4-[1-[amino(benzylinino)methyl]piperidin-4-yloxy]phenyl]carbamoylbenzoic Acid Dihydrochloride], on Human FXa, the IC50 was determined as 0.08 µM.

On to `CCOC(=O)C1(COc2ccc3ccc(C(=N)N)cc3c2)CCN(c2ccncc2)CC1` [Example 40, 4-(2-Amidinonaphthalen-7-yloxymethyl)-1-(pyridin-4-yl)piperidine-4-carboxylic Acid Ethyl Ester Dihydrochloride], for which the IC50 was 0.5 µM at Human FXa and over 10 µM on Human FIIa.

Take `COC(=O)c1cnccc1N1CCC(COc2ccc3c(c2)CN(C(=N)N)CC3)CC1` [Example 34, 4-[4-(2-Amidino-1,2,3,4-tetrahydroisoquinolin-7-yloxymethyl)-piperidin-1-yl]pyridine-3-carboxylic Acid Methyl Ester Dihydrochloride]: the IC50 at Human FXa is 0.2 µM; on Human FIIa, over 10 µM.

In the case of `Cc1cc(N2CCC(COc3ccc4c(c3)CN(C(=N)N)CC4)(C(=O)O)CC2)ccn1` [Example 13, 4-(2-Amidino-1,2,3,4-tetrahydroisoquinolin-7-yloxymethyl)-1-(2-methylpyridin-4-yl)piperidine-4-carboxylic Acid Dihydrochloride], the results for the IC50 on Human FXa and on Human FIIa were 0.2 µM and over 10 µM, respectively. On the same counts, the results for `N=C(N)N1CCc2ccc(OCC3CCN(C(=N)Cc4ccccc4)CC3)cc2C1` [Example 30, 7-(1-Phenylacetimidoylpiperidin-4-ylmethoxy)-1,2,3,4-tetrahydroisoquinoline-2-carboxamidine Dihydrochloride] are 0.4 µM and over 10 µM. On the same counts, the results for `N=C(N)N1CCc2ccc(OCC3CCN(S(=O)(=O)NCc4ccccc4)CC3)cc2C1` [Example 83, N-Benzyl-4-(2-amidino-1,2,3,4-tetrahydroisoquinolin-7-yloxymethyl)piperidine-1-sulfonamide hydrochloride] are 0.7 µM and over 10 µM. With `CC(=N)N1CCC(COc2ccc3c(c2)CN(C(=N)N)CC3)CC1` [Example 29, 7-(1-Acetimidoylpiperidin-4-ylmethoxy)-1,2,3,4-tetrahydroisoquinoline-2-carboxamidine Dihydrochloride], the 50% inhibitory concentration (IC50) on Human FXa is 0.5 µM; on Human FIIa, over 10 µM.

As for `CCOC(=O)C1(COc2ccc3c(c2)CN(C(=N)N)CC3)CCN(c2ccnc(C)c2)CC1` [Example 12, 4-(2-Amidino-1,2,3,4-tetrahydroisoquinolin-7-yloxymethyl)-1-(2-methylpyridin-4-yl)piperidine-4-carboxylic Acid Ethyl Ester Dihydrochloride], at Human FXa, the half-inhibitory concentration (IC50) is 0.6 µM. For the compound `CCOC(=O)CCc1cnccc1N1CCC(COc2ccc3c(c2)CN(C(=N)N)CC3)CC1` [Example 88, 3-[4-[4-(2-Amidino-1,2,3,4-tetrahydroisoquinolin-7-yloxymethyl)piperidin-1-yl]pyridin-3-]propionic Acid Ethyl Ester Dihydrochloride], the IC50 at Human FXa was determined as 0.2 µM. Consider `CCOC(=O)/C=C/c1cnccc1N1CCC(COc2ccc3c(c2)CN(C(=N)N)CC3)CC1` [Example 33, 3-[4-[4-(2-Amidino-1,2,3,4-tetrahydroisoquinolin-7-yloxymethyl)-piperidin-1-yl]pyridin-3-yl]-2-propenoic Acid Ethyl Ester Dihydrochloride], for which the IC50 on Human FXa is 0.3 µM; at Human FIIa it was over 10 µM. On the same counts, the results for `Cc1cc(N2CCC(COc3ccc4c(c3)CN(C(=N)N)CC4)(C(=O)O)CC2)cc(C)n1` [Example 11, 4-(2-Amidino-1,2,3,4-tetrahydroisoquinolin-7-yloxymethyl)-1-(2,6-dimethylpyridin-4-yl)piperidine-4-carboxylic Acid Dihydrochloride] are 0.3 µM and over 10 µM. Regarding `CCOC(=O)C1(CCOc2ccc3c(c2)CN(C(=N)N)CC3)CCN(c2ccncc2)CC1` [Example 15, 4-[2-(2-Amidino-1,2,3,4-tetrahydroisoquinolin-7-yloxy)ethyl]-1-(pyridin-4-yl)piperidine-4-carboxylic Acid Ethyl Ester Dihydrochloride], the IC50 at Human FXa stood at 0.2 µM. `N=C(N)N1CCc2ccc(OCC3CCN(c4ccc(NC(=O)c5ccccc5)cn4)CC3)cc2C1` [Example 32, N-[2-[4-(2-Amidino-1,2,3,4-tetrahydroisoquinolin-7-yloxymethyl)-piperidin-1-yl]pyridin-5-yl]benzamide Dihydrochloride]: the IC50 at Human FXa is 0.4 µM; at Human FIIa it was over 10 µM. On to `CCOC(=O)C1(COc2ccc3c(c2)CN(C(=N)N)CC3)CCN(c2ccncc2)CC1` [Example 6, 4-(2-Amidino-1,2,3,4-tetrahydroisoquinolin-7-yloxymethyl)-1-(pyridin-4-yl)piperidine-4-carboxylic Acid Ethyl Ester Dihydrochloride], for which the IC50 on Human FXa is 0.08 µM; on Human FIIa it was over 10 µM. In the same order, the values of `CC(=N)N1CCC(Oc2ccc(N(Cc3nc4cc(C(=N)N)ccc4n3C/C=C/c3ccccc3)C(=O)c3ccc(C(=O)O)cc3)cc2)CC1` [Example 109, N-[5-Amidino-1-(3-phenyl-2-propenyl)benzimidazol-2-ylmethyl]-N-[4-(1-acetimidoylpiperidin-4-yloxy)phenyl]carbamoylbenzoic Acid Dihydrochloride] are 0.2 µM and over 10 µM.

In the case of `CCOC(=O)C1(COc2ccc3c(c2)CN(C(=N)N)CC3)CCN(c2ccc(C(=N)N)cc2)CC1` [Example 98, 4-(2-Amidino-1,2,3,4-tetrahydroisoquinolin-7-yloxymethyl)-1-(4-amidinophenyl)-piperidine-4-carboxylic Acid Ethyl Ester Dihydrochloride], the IC50 at Human FXa was 0.4 µM; at Human FIIa, over 10 µM. In the same order, the values of `N=C(N)N1CCc2ccc(OCC3CCN(c4ccnc5ccccc45)CC3)cc2C1` [Example 2, 7-[1-(Quinolin-4-yl)piperidin-4-ylmethoxy]-1,2,3,4-tetrahydroisoquinoline-2-carboxamidine Dihydrochloride] are 0.4 µM and over 10 µM.

Values taken from patent US6562828B1, “Amidine compounds” (Japan Tobacco Inc., priority 1998, dated 2003).
